Data set [1] concerns Mouse colon cancer, Colon 26. Description: Antitumor activity test for docetaxel conjugate. Type of data set: in vivo. Particulars: 100 mg/kg in terms of docetaxel, once into tail vein. The text has this:
Mouse colon cancer, Colon 26, maintained by serial subcutaneous subculture in mice, was minced into about 2-mm cubic fragments, and the fragments were subcutaneously transplanted on the dorsal part of female CDF1 mice with a trocar. Eight days after the tumor transplantation, the polymer conjugate according to the invention (Compound 30) or a control drug (docetaxel; DTX or PEG-Asp-DTX) was each administered once into the mouse tail vein in a way such that each mouse received the same dose per body weight in terms of docetaxel. Docetaxel was dissolved in anhydrous ethanol and cremophor (manufactured by Sigma Corporation), and diluted with physiological saline at the time of use. Other compounds were dissolved in a 5% aqueous glucose solution for injection and used. After the administration, the major axis (L mm) and the minor axis (W mm) of the tumor were measured using a caliper, and the tumor volume was calculated by the formula (L×W^2)/2.

In data set [2] the test system is Mouse colon cancer, Colon 26. In words: Antitumor activity test for combretastatin A4 conjugate. Particulars: for relative tumor volume based on non-treatment group: 200 mg/kg in terms of combretastatin A4, once into tail vein. The format is in vivo. From the text: Mouse colon cancer, Colon 26, maintained by serial subcutaneous subculture in mice, was minced into about 2-mm cubic fragments, and the fragments were subcutaneously transplanted on the dorsal part of female CDF1 mice with a trocar. Eight days after the tumor transplantation, the polymer conjugate according to the invention (Compound 22) or a control drug (combretastatin A4 phosphate ester; CA4P, PEG-Glu-CA4 or PEG-Asp-CA4) was each administered once into the mouse tail vein in a way such that each mouse received the same dose per body weight in terms of combretastatin A4. Each compound was dissolved in a 5% aqueous glucose solution and used.
After the administration, the major axis (L mm) and the minor axis (W mm) of the tumor were measured using a caliper, and the tumor volume was calculated by the formula (L×W^2)/2.

The next data set concerns heart muscle. In words: Effect of combretastatin A4 conjugate on heart muscle (plasma CPK). Type of data set: in vivo, mouse. The conditions noted are these: for creatinine phosphokinase (CPK) in plasma, average: 200 mg/kg once into tail vein. From the text: Combretastatins are known to have a side effect of causing a myocardial damage. As such, by following a change in efficacy of creatinine phosphokinase (CPK) that is released into blood when enzymes abundantly present in heart muscles or neurons are damaged, the degree of side effect of the compounds according to the invention was compared to those of known compounds.
To a non-treated female CDF1 mouse, Compound 22 as a compound of the invention and CA4P, PEG-Glu-CA4, and PEG-Asp-CA4 as a comparative compound were each administered once into the mouse tail vein. Six hours and 24 hours after the administration, three animals per each group were anesthetized with ether and blood was taken from abdominal aorta. Creatinine phosphokinase (CPK) contained in plasma was measured.

Experimental findings from patent US8808749B2, “Polymer conjugate of bioactive substance having hydroxy group” (priority 2009, dated 2014) are described below.

docetaxel [DTX]: the “relative tumor volume based on non-treatment group” value in data set [1] (day 0 after administration) worked out at 1.00; in data set [1] (day 3 after administration), 0.50; in data set [1] (day 5 after administration), 0.32; in data set [1] (day 9 after administration) it was 0.37; in data set [1] (day 12 after administration), 0.35.
Regarding `COc1ccc(/C=C\c2cc(OC)c(OC)c(OC)c2)cc1OP(=O)(O)O` [CA4P, combretastatin A4 phosphate ester], the “relative tumor volume based on non-treatment group” value turned out to be 1.00 in data set [2] (day 0 after administration); 0.72 in data set [2] (day 2 after administration); 0.82 in data set [2] (day 4 after administration); 0.80 in data set [2] (day 6 after administration); 0.80 in data set [2] (day 8 after administration). For the same compound, in data set [2] (dose of 200 mg/kg), the “antitumor activity (in words)” value is reported as “weak antitumor activity”. Moreover, the “creatinine phosphokinase (CPK) in plasma, average” value with heart muscle (6 hours after administration) is recorded as 400-500 IU/L; in the data set on heart muscle (24 hours after administration) it was “≦200 IU/L”. Moreover, the “CPK change (in words)” value in the data set on heart muscle (dose of 200 mg/kg) is listed as “CPK increase was significant”.
